In assay [1] the target is T1, proMMP9(20-445;ΔFnII) (SEQ ID NO:6) (Homo sapiens, UniProt P14780, DEL216-390).
T1 construct: start methionine (N); made in house; host or cells: E. coli BL21(DE3) RIL
T1 sequence (P14780 with tags, fused parts or gaps DEL216-390): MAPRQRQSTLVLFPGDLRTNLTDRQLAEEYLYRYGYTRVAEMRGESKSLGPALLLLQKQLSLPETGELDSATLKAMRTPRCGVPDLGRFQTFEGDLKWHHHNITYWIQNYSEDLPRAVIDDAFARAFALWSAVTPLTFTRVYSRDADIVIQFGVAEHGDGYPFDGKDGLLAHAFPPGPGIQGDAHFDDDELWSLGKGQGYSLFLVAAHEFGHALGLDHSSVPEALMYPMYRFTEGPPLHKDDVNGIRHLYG
The assay is described as follows: ThermoFluor with proMMP9(20-445;ΔFnII). The conditions noted are these: read-out: proMMP9(20-445; ΔFnII) (SEQ ID NO: 6) binding. Here is the method: (§1) The ThermoFluor® (TF) assay is a 384-well plate-based binding assay that measures thermal stability of proteins (Biomol Screen 2001, 6, 429-40; Biochemistry 2005, 44, 5258-66). The experiments were carried out using instruments available from Johnson & Johnson Pharmaceutical Research & Development, LLC. TF dye used in all experiments was […] (1,8-ANS) (Invitrogen: A-47).
(§2) Compounds were arranged in a pre-dispensed plate (Greiner Bio-one: 781280), wherein compounds were serially diluted in 100% DMSO across 11 columns within a series. Columns 12 and 24 were used as DMSO reference and contained no compound. For multiple compound concentration-response experiments, the compound aliquots (50 nL) were robotically predispensed directly into black 384-well polypropylene PCR microplates (Abgene: TF-0384/k) using a Cartesian Hummingbird liquid handler (DigiLab, Holliston, Mass.). Following compound dispense, protein and dye solutions were added to achieve the final assay volume of 3 μL. The assay solutions were overlayed with 1 μL of silicone oil (Fluka, type DC 200: 85411) to prevent evaporation.
(§3) Assay plates were robotically loaded onto a thermostatically controlled PCR-type thermal block and then heated from 40 to 90° C. at a ramp-rate of 1° C./min for all experiments. Fluorescence was measured by continuous illumination with UV light (Hamamatsu LC6) supplied via fiber optics and filtered through a band-pass filter (380-400 nm; >6 OD cutoff). Fluorescence emission of the entire 384-well plate was detected by measuring light intensity using a CCD camera (Sensys, Roper Scientific) filtered to detect 500±25 nm, resulting in simultaneous and independent readings of all 384 wells. A single image with 20-sec exposure time was collected at each temperature, and the sum of the pixel intensity in a given area of the assay plate was recorded vs temperature and fit to standard equations to yield the Tm (J Biomol Screen 2001, 6, 429-40).
(§4) Thermodynamic parameters necessary for fitting compound binding for each proMMP were estimated by differential scanning calorimetry (DSC) and from ThermoFluor® data. The heat capacity of unfolding for each protein was estimated from the molecular weight and from ThermoFluor® dosing data.
ThermoFluor® with proMMP9(20-445;ΔFnII) (SEQ ID NO:6)
The protein sample preparations included a desalting buffer exchange step via a PD-10 gravity column (GE Healthcare). The desalting buffer exchange was performed prior to diluting the protein to the final assay concentration of 2.8 μM proMMP9(20-445;ΔFnII) (SEQ ID NO:6). The concentration of proMMP9(20-445;ΔFnII) (SEQ ID NO:6) was determined spectrophotometrically based on a calculated extinction coefficient of ε280=39880 M^−1cm^−1, a calculated molecular weight of 28.2 kDa, and calculated pI of 5.5. ThermoFluor® reference conditions were define as follows: 80 μg/mL (2.8 μM) proMMP9(20-445;ΔFnII) (SEQ ID NO:6), 50 μM 1,8-ANS, pH 7.0 Buffer (50 mM HEPES pH 7.0, 100 mM NaCl, 0.001% Tween-20, 2.5 mM MgCl2, 300 μM CaCl2). The thermodynamic parameters for proMMP9(20-445;ΔFnII) (SEQ ID NO:6) are as follows: Tm (° C.)=72 (+/−0.1), ΔUH(Tm) (cal mol^−1)=160000(+/−5000), ΔUS(Tm) (cal mol^−1 K^−1)=434, ΔUCp (cal mol^−1 K^−1)=2400.
(In general: Differential scanning fluorimetry follows unfolding on heating by fluorescence.)

The target in assay [2] is T2, proMMP9(67-444;ΔFnII) (SEQ ID NO:5) (Homo sapiens, UniProt P14780, DEL216-390).
T2 construct: start methionine (N); made in house; host or cells: E. coli BL21(DE3) RIL
T2 sequence (P14780 with tags, fused parts or gaps DEL216-390): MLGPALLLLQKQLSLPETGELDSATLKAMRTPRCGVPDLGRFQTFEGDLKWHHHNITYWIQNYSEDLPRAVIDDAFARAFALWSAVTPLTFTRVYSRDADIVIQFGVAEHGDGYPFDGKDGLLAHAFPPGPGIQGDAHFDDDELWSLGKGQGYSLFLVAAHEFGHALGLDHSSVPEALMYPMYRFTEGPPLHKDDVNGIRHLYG
The assay is described as follows: ThermoFluor with proMMP9(67-444;ΔFnII). The conditions noted are these: read-out: proMMP9(67-444; ΔFnII) (SEQ ID NO: 5) binding. On the procedure:
as §1, §2, §3, §4
ThermoFluor® with proMMP9(67-444;ΔFnII) (SEQ ID NO:5)
The protein sample preparations had to include a desalting buffer exchange step via a PD-10 gravity column (GE Healthcare). The desalting buffer exchange was performed prior to diluting the protein to the final assay concentration of 3.5 μM proMMP9(67-444;ΔFnII) (SEQ ID NO:5). The concentration of proMMP9(67-444;ΔFnII) (SEQ ID NO:5) was determined spectrophotometrically based on a calculated extinction coefficient of ε280=33900 M^−1cm^−1, a calculated molecular weight of 22.6 kDa, and calculated pI of 5.20. ThermoFluor® reference conditions were defined as follows: 80 μg/mL (3.5 μM) proMMP9(67-444;ΔFnII) (SEQ ID NO:5), 50 μM 1,8-ANS, pH 7.0 Buffer (50 mM HEPES pH 7.0, 100 mM NaCl, 0.001% Tween-20, 2.5 mM MgCl2, 300 μM CaCl2). The thermodynamic parameters for proMMP9(67-444;ΔFnII) (SEQ ID NO:5) are as follows: Tm (° C.)=63 (+/−0.1), ΔUH(Tm) (cal mol^−1)=105000(+/−5000), ΔUS(Tm) (cal mol^−1 K^−1)=450, […].

Assay [3] addresses T3, full-length proMMP9(1-707) (SEQ ID NO:1) (Homo sapiens, UniProt P14780, R574P).
T3 construct: made in house; host or cells: HEK293 (proMMP9, secreted); E. coli (MMP3)
The assay is described as follows: proMMP9/MMP3 P126 Activation Assay. It is filed as biochemical. The conditions noted are these: proMMP9(1-707) from HEK293 cells activated by catalytic MMP3. On the procedure:
proMMP9/MMP3 P126 Activation Assay
The reaction volume was 50 μL. […] Reactivity of residual MMP3 towards P-126 substrate was minimal under these conditions.

This passage reports Kd and IC50 results from patent US20120302569A1, “PHENYL-THIAZOLYL INHIBITORS OF PRO-MATRIX METALLOPROTEINASE ACTIVATION” (priority 2011, published 2012).

Molecules are shown by their SMILES. Where a name gives a salt, the structure may show the parent alone.

As a reminder, the IC50 is the concentration that gives 50% inhibition.

T3 sequence (P14780 20-707 R574P): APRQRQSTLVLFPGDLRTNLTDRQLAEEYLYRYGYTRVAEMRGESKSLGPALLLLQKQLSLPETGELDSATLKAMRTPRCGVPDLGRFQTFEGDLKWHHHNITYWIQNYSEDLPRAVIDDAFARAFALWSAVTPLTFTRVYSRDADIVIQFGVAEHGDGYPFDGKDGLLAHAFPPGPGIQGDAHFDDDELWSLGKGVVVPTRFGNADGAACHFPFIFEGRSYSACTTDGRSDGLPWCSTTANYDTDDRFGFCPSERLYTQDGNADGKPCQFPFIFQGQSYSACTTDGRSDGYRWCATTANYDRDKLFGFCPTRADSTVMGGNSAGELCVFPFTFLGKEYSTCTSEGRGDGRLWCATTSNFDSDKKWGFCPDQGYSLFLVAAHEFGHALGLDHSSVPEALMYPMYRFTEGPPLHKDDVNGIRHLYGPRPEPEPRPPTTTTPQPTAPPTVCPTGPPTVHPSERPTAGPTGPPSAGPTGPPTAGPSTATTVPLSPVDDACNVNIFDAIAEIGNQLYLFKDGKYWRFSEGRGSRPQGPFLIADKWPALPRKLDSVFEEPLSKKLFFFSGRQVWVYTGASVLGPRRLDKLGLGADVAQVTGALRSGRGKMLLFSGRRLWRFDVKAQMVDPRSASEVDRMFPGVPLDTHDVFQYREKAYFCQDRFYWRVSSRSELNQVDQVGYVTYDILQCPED

In the case of `COc1ccc(F)cc1Nc1nc(-c2ccc(CN3CC[C@@H](F)C3)cc2)cs1` [Example 61, (R)—N-(5-fluoro-2-methoxyphenyl)-4-(4-((3-fluoropyrrolidin-1-yl)methyl)phenyl)thiazol-2-amine.TFA], the results for the Kd in assay [1] and in assay [2] were 53000 nM and 5600 nM, respectively. Besides, in assay [3], the IC50 came to 1500 nM.
The like results for `CC(C)Oc1ccc(S(N)(=O)=O)cc1Nc1nc(-c2ccc(OCCN3CCOCC3)cc2)cs1` [Example 28, 4-Isopropoxy-3-((4-(4-(2-morpholinoethoxy)phenyl)thiazol-2-yl)amino)benzenesulfonamide.TFA] were, in that order, 75 nM, 110 nM and 100 nM.
The matching figures for `NS(=O)(=O)c1ccc(OC(F)(F)F)c(Nc2nc(-c3ccc(OCCN4CCC(F)(F)CC4)cc3)cs2)c1` [Example 33, 3-((4-(4-(2-(4,4-difluoropiperidin-1-yl)ethoxy)phenyl)thiazol-2-yl)amino)-4-(trifluoromethoxy)benzenesulfonamide.TFA]: 1300 nM, 650 nM and 16000 nM.
Turning to `COc1ccc(F)cc1Nc1nc(-c2ccc(OCCN3CCC(F)CC3)cc2)cs1` [Example 68, N-(5-fluoro-2-methoxyphenyl)-4-(4-(2-(4-fluoropiperidin-1-yl)ethoxy)phenyl)thiazol-2-amine.TFA], the Kd in assay [1] was over 19000 nM; in assay [2], 2600 nM. Moreover, inhibition in assay [3] was half-maximal at 1300 nM (IC50).
The like results for `CCN1CCN(c2ccc(-c3csc(Nc4cc(C(N)=O)ccc4OC(C)C)n3)cc2)CC1` [Example 9, 3-((4-(4-(4-Ethylpiperazin-1-yl)phenyl)thiazol-2-yl)amino)-4-isopropoxybenzamide.TFA] were, in that order, 34 nM, 94 nM and 89 nM.
In the case of `CCOc1ccncc1Nc1nc(-c2ccc(C3=CCNCC3)cc2)cs1` [Example 20, N-(4-Ethoxypyridin-3-yl)-4-(4-(1,2,3,6-tetrahydropyridin-4-yl)phenyl)thiazol-2-amine.TFA], the Kd in assay [1] is 380 nM; in assay [2], 69 nM. For the same molecule, the IC50 in assay [3] was 92 nM.
The matching figures for `COc1ccc(F)cc1Nc1nc(-c2ccc(CN3CCN(C4CC4)CC3)cc2)cs1` [Example 60, 4-(4-((4-cyclopropylpiperazin-1-yl)methyl)phenyl)-N-(5-fluoro-2-methoxyphenyl)thiazol-2-amine.TFA]: 35000 nM, 9400 nM and 930 nM.
The matching figures for `CCOc1ccncc1Nc1nc(-c2ccc(C3=CCN(C)CC3)cc2)cs1` [Example 21, N-(4-Ethoxypyridin-3-yl)-4-(4-(1-methyl-1,2,3,6-tetrahydropyridin-4-yl)phenyl)thiazol-2-amine]: 400 nM, over 76000 nM and 57 nM.
Consider `CCN1CCC(c2ccc(-c3csc(Nc4cc(S(N)(=O)=O)ccc4OC(C)C)n3)cc2)CC1` [Example 26, 3-((4-(4-(1-Ethylpiperidin-4-yl)phenyl)thiazol-2-yl)amino)-4-isopropoxybenzenesulfonamide.TFA], for which the Kd in assay [1] stood at 25 nM; in assay [2], 46 nM. In assay [3], this molecule registered an IC50 of 44 nM.
The matching figures for `CC(C)Oc1ccc(S(N)(=O)=O)cc1Nc1nc(-c2ccc(C3CCN(C)CC3)cc2)cs1` [Example 25, 4-Isopropoxy-3-((4-(4-(1-methylpiperidin-4-yl)phenyl)thiazol-2-yl)amino)benzenesulfonamide.TFA]: 27 nM, 30 nM and 69 nM.
The like results for `NS(=O)(=O)c1ccc(OC(F)(F)F)c(Nc2nc(-c3ccc(OCCN4CCC(F)CC4)cc3)cs2)c1` [Example 41, 3-((4-(4-(2-(4-fluoropiperidin-1-yl)ethoxy)phenyl)thiazol-2-yl)amino)-4-(trifluoromethoxy)benzenesulfonamide.TFA] were, in that order, 330 nM, 180 nM and 620 nM.
`CC(C)Oc1ccc(C(N)=O)cc1Nc1nc(-c2ccc(CN3CC[C@@H](F)C3)cc2)cs1` [Example 52, (R)-3-((4-(4-((3-fluoropyrrolidin-1-yl)methyl)phenyl)thiazol-2-yl)amino)-4-isopropoxybenzamide.TFA]: the Kd came out at 27 nM in assay [1] and 87 nM in assay [2]. The same molecule registered a half-inhibitory concentration (IC50) in assay [3] of 110 nM.
Take `COc1cc(C)c(C(N)=O)cc1Nc1nc(-c2ccc(OCCN3CCC(F)CC3)cc2)cs1` [Example 39, 5-((4-(4-(2-(4-fluoropiperidin-1-yl)ethoxy)phenyl)thiazol-2-yl)amino)-4-methoxy-2-methylbenzamide.TFA]: the values for the Kd in assay [1] and in assay [2] were 550 nM and 640 nM, respectively. In addition, it took 720 nM to reach half-maximal inhibition in assay [3] (IC50).
For the molecule `CC(C)Oc1ccc(S(N)(=O)=O)cc1Nc1nc(-c2ccc(CN3CCN(C4CC4)CC3)cc2)cs1` [Example 51, 3-((4-(4-((4-cyclopropylpiperazin-1-yl)methyl)phenyl)thiazol-2-yl)amino)-4-isopropoxybenzenesulfonamide.TFA], the Kd in assay [1] turned out to be 36 nM; in assay [2], 79 nM. Besides, the IC50 in assay [3] stood at 110 nM.
The like results for `NC(=O)c1ccc(OC(F)(F)F)c(Nc2nc(-c3ccc(OCCN4CCC(F)CC4)cc3)cs2)c1` [Example 37, 3-((4-(4-(2-(4-fluoropiperidin-1-yl)ethoxy)phenyl)thiazol-2-yl)amino)-4-(trifluoromethoxy)benzamide.TFA] were, in that order, 74 nM, 270 nM and 360 nM.
